Measured values: article PMC4132742, “Inhibition of RNA binding to hepatitis C virus RNA-dependent RNA polymerase: a new mechanism for antiviral intervention” (Nucleic Acids Research, 2014)

Molecular target: HCV-NS5BΔ21 RdRp genotype 1b (strain J4) (Hepatitis C virus genotype 1b, UniProt O92972)
Assay: biochemical
Set-up: His6 (N); made in house; host or cells: Escherichia coli C41(DE3)
Details: 20 μM compound; for Slope of fluorescence increase: no treatment control slope 62.0
Description: The HCV RdRps (NS5B protein) from reference strains H77 (genotype 1a), J4 (genotype 1b) and JFH1 (genotype 2a), truncated of their 21 C-terminal amino acids to ensure solubility (NS5BΔ21) and carrying a hexahistidine tag (His6-Tag) at their N-terminus, were expressed in Escherichia coli C41(DE3) and purified as previously described ([20]). Briefly, cultures were grown at 37°C for ∼1 h and induced with 1 mM isopropyl β-D-thiogalactoside for 4 h at 37°C. […] After sonication, cell lysates were clarified by centrifugation, and chromatography was performed on a Ni-NTA column (Qiagen, Hilden, Germany). The bound protein was eluted in 1 ml fractions with a buffer containing 50 mM NaH2PO4 (pH 8.0), 500 mM NaCl and 250 mM imidazole. NS5BΔ21-enriched fractions were selected using a Bradford colorimetric assay, and HCV-NS5BΔ21 purity was determined by Coomassie-stained sodium dodecyl sulfate-polyacrylamide electrophoresis gel (SDS-PAGE) analysis. Purified NS5BΔ21 fractions were pooled and dialyzed against a buffer containing 5 mM Tris (pH 7.5), 0.2 M sodium acetate, 1 mM DTT, 1 mM ethylenediaminetetraacetic acid (EDTA) and 10% glycerol.
The cell-free HCV-NS5BΔ21 polymerase assay is based on the real-time measurement of the amount of double-stranded RNA synthesized in the presence of HCV-NS5BΔ21, a homopolymeric RNA template (poly U or poly C, GE Healthcare, Chalfont St. Giles, UK) and the corresponding nucleotide, by means of an intercalating agent (SYBR® Green, Applied Biosystems, Carlsbad, CA, USA), as previously described ([20]). For screening, HCV-NS5BΔ21 polymerase activity was quantified by the slope of fluorescence increase in the presence of 20 μM of the tested flavonoid compounds and compared with the control reaction containing no inhibitor. […] The reported values are the average of three independent measurements performed in duplicate. For kinetics analysis, initial reaction velocities were measured at different nucleotide (adenosine triphosphate (ATP) or GTP) and studied compound concentrations, without pre-incubation and in the presence of 50 μg/ml of the corresponding homopolymeric RNA template (Poly U and Poly C, respectively). The concentration of NS5BΔ21 (J4 strain, genotype 1b) in the reaction was 0.1 mg/ml. Kinetics data were graphically represented as double reciprocal plots. Data points were fitted by linear regression to identify the inhibition mode of the compound.

Oc1cc(O)c2c(c1)O[C@H](c1ccc(O)c(O)c1)[C@@H](O)C2 (racemic) [DL-Catechin]
% HCV-NS5BΔ21 inhibition: 17.7% | Slope of fluorescence increase: 51.1

O=C1c2ccc(O)cc2OC(c2cc(O)c(O)c(O)c2)C1O (stereo in doubt) [Dihydrorobinetin]
% HCV-NS5BΔ21 inhibition: 11.0% | Slope of fluorescence increase: 55.2

O=c1cc(-c2ccc(O)c(O)c2)oc2ccccc12 [3’.4’-Dihydroxyflavone]
% HCV-NS5BΔ21 inhibition: 45.4% | Slope of fluorescence increase: 33.9

O=c1cc(-c2ccc(O)c(O)c2)oc2c(O)c(O)ccc12 [3’.4’.7.8-Tetrahydroxyflavone]
% HCV-NS5BΔ21 inhibition: 30.9% | Slope of fluorescence increase: 42.9

O=C1CC(c2ccc(O)cc2)Oc2ccccc21 (stereo not shown) [4’-Hydroxyflavanone]
inhibition at 20 µM: 9.3% | Slope of fluorescence increase: 56.3

O=c1c(O)c(-c2ccc(O)cc2)oc2cc(O)ccc12 [5-Deoxykampferol]
% HCV-NS5BΔ21 inhibition (20 µM): 63.9% | Slope of fluorescence increase: 22.4

O=c1cc(-c2ccccc2)oc2cccc(O)c12 [5-hydroxyflavone]
inhibition at 20 µM: 14.5% | Slope of fluorescence increase: 53.0

O=c1cc(-c2ccccc2)oc2c(O)c(O)cc(O)c12 [5.7.8-Trihydroxyflavone]
% HCV-NS5BΔ21 inhibition: 47.4% | Slope of fluorescence increase: 32.6

O=C1CC(c2ccccc2)Oc2ccc(O)cc21 (stereo not shown) [6-Hydroxyflavanone]
inhibition at 20 µM: 4.1% | Slope of fluorescence increase: 59.5

O=c1cc(-c2ccccc2)oc2ccc(O)cc12 [6-Hydroxyflavone]
inhibition at 20 µM: 18.5% | Slope of fluorescence increase: 50.6

O=c1cc(-c2ccccc2)oc2cc(O)c(O)cc12 [6.7 Dihydroxyflavone]
% HCV-NS5BΔ21 inhibition: 37.4% | Slope of fluorescence increase: 38.8

O=c1c(O)c(-c2ccccc2)oc2cc(O)ccc12 [7-hydroxyflavonol]
inhibition at 20 µM: 71.3% | Slope of fluorescence increase: 17.8

O=c1cc(-c2ccc(O)cc2)oc2cc(O)ccc12 [7.4’-Dihydroxyflavone]
% HCV-NS5BΔ21 inhibition: 25.7% | Slope of fluorescence increase: 46.1

O=c1cc(-c2ccccc2)oc2c(O)c(O)ccc12 [7.8 Dihydroxyflavone]
% HCV-NS5BΔ21 inhibition: 30.8% | Slope of fluorescence increase: 42.9

O=c1cc(-c2ccc(O)cc2)oc2cc(O)cc(O)c12 [Apigenin]
inhibition at 20 µM: 62.5% | Slope of fluorescence increase: 23.3

O=c1cc(-c2ccccc2)oc2cc(O)c(O)c(O)c12 [Baicalein]
inhibition at 20 µM: 61.8% | Slope of fluorescence increase: 23.7

O=c1c(O)c(-c2ccccc2O)oc2cc(O)cc(O)c12 [Datiscetin]
inhibition at 20 µM: 70.5% | Slope of fluorescence increase: 18.3

O=c1c(O)c(-c2ccc(O)c(O)c2)oc2cc(O)ccc12 [Fisetin]
inhibition at 20 µM: 65.8% | Slope of fluorescence increase: 21.2

O=C1CC(c2ccccc2)Oc2ccccc21 (stereo not shown) [Flavanone]
inhibition at 20 µM: 7.5% | Slope of fluorescence increase: 57.4

O=c1cc(-c2ccccc2)oc2ccccc12 [Flavone]
inhibition at 20 µM: 13.1% | Slope of fluorescence increase: 53.9

O=C1c2ccc(O)cc2O[C@H](c2ccc(O)c(O)c2)[C@H]1O [Fustin]
inhibition at 20 µM: 14.5% | Slope of fluorescence increase: 53.0

O=c1c(O)c(-c2ccccc2)oc2cc(O)cc(O)c12 [Galangin]
inhibition at 20 µM: 80.8% | Slope of fluorescence increase: 11.9

O=c1c(-c2ccc(O)cc2)coc2cc(O)cc(O)c12 [Genistein]
inhibition at 20 µM: 13.1% | Slope of fluorescence increase: 53.9

O=c1c(O)c(-c2ccc(O)c(O)c2)oc2c(O)c(O)cc(O)c12 [Gossypetin]
inhibition at 20 µM: 74.6% | Slope of fluorescence increase: 15.8

O=c1c(O[C@@H]2O[C@H](CO)[C@H](O)[C@H](O)[C@H]2O)c(-c2ccc(O)c(O)c2)oc2cc(O)cc(O)c12 [Hyperoside]
inhibition at 20 µM: 28.1% | Slope of fluorescence increase: 44.6

COc1cc(-c2oc3cc(O)cc(O)c3c(=O)c2O)ccc1O [Isorhamnetin]
inhibition at 20 µM: 77.6% | Slope of fluorescence increase: 13.9
